Results published in PubChem BioAssay (NCI).
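Cells were grown in 96-well plates and exposed to each compound for 48 hours at five concentrations; endpoints were interpolated linearly between bracketing concentrations, or set to the highest concentration if not reached. Abbreviation: GI50, concentration required for 50% inhibition of growth. TGI: total growth inhibition.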

Tests used:
Assay in all cases: growth of human tumour cells (NCI), 48 h
MDA-MB-435 = system: MDA-MB-435
UACC-62 melanoma = system: UACC-62 melanoma
A498 renal = system: A498 renal
HOP-62 NSCLC = system: HOP-62 NSCLC
OVCAR-5 ovarian = system: OVCAR-5 ovarian
K-562 leukemia = system: K-562 leukemia
SF-539 CNS = system: SF-539 CNS
A549 NSCLC = system: A549 NSCLC
MALME-3M melanoma = system: MALME-3M melanoma
HL-60(TB) leukemia = system: HL-60(TB) leukemia

Structure (SMILES) | GI50 (MDA-MB-435) [µM] | TGI (MDA-MB-435) [µM] | GI50 (UACC-62 melanoma) [µM] | TGI (UACC-62 melanoma) [µM] | GI50 (A498 renal) [µM] | TGI (A498 renal) [µM] | GI50 (HOP-62 NSCLC) [µM] | TGI (HOP-62 NSCLC) [µM] | GI50 (OVCAR-5 ovarian) [µM] | TGI (OVCAR-5 ovarian) [µM] | GI50 (K-562 leukemia) [µM] | TGI (K-562 leukemia) [µM] | GI50 (SF-539 CNS) [µM] | TGI (SF-539 CNS) [µM] | GI50 (A549 NSCLC) [µM] | TGI (A549 NSCLC) [µM] | GI50 (MALME-3M melanoma) [µM] | TGI (MALME-3M melanoma) [µM] | GI50 (HL-60(TB) leukemia) [µM] | TGI (HL-60(TB) leukemia) [µM]
Nc1nc(N)c2nc3c(nc2n1)CCCCCCCCCC3 | 0.577 | > 100 | 1.39 | > 100 | 6.9 | > 100 | 4.47 | > 100 | 1.75 | > 100 | 0.43 | > 100 | 5.69 | > 100 | 0.407 | > 100 | 4.48 | > 100 | 1.95 | > 100
Cc1cc(O)c(C2=NN(c3ccc(S(N)(=O)=O)cc3)C(/C=C/c3ccccc3)C2)cc1Cl (stereo not given) | 8.87 | 24 | 2.89 | 11.4 | 14.9 | 42.4 | 3.94 | 14.1 | 3.18 | 14.7 | 11.6 | 87.5 | 2.98 | 14 | 11 | 30.8 | 3.01 | 17.4 | 68.3 | > 100
O=C(O)c1c(Br)c(Br)c(Br)c(Br)c1C1c2ccc(O)cc2Oc2cc(O)ccc21 |  | > 100 |  | > 100 |  | > 100 |  | > 100 |  | > 100 |  | > 100 |  | > 100 |  | > 100 |  | > 100 |  | 30.1
C[C@@H](CO)NC(=O)c1cc(-c2ccc(Cl)cc2)nn(-c2cnn(C)c2)c1=O | 50.3 | > 100 | 14.5 | 31.7 | 3.01 | 62.3 | 41.8 | > 100 | 28.7 | > 100 | 26.3 | 95 | 16 | 48.3 | 20.3 | 67.7 | 17.8 | 45 | 13.9 | 42.3
COc1cc(C)c2sc3ccccc3c(=O)c2c1NCCN(C)C | 2.91 | 10.6 | 1.87 | 3.8 | 8.83 | 22.1 | 7.1 | 19.6 | 9.57 | 22.3 | 2.3 | 4.61 | 4.73 | 17.4 | 4.05 | 15.7 | 2.11 | 5.39 | 4.68 | 16.3
O=C(CC1C=Cc2ccccc2N1C(=O)c1ccccc1)c1ccccc1 (stereo not given) |  | 47.8 |  | 28.5 |  | 93.5 |  | > 100 |  | > 100 |  | > 100 |  | 66.7 |  | > 100 |  | 61 |  | 43.4
CN(CCCCCl)P(=O)(OCc1ccc([N+](=O)[O-])o1)OCC1OC(n2cnc([N+](=O)[O-])c2N)C(O)C1O (stereo not given) | > 100 | > 100 | > 100 | > 100 | > 100 | > 100 | > 100 | > 100 | > 100 | > 100 | > 100 | > 100 | > 100 | > 100 | > 100 | > 100 | > 100 | > 100 | > 100 | > 100
O=C(CCCN1CCC(C(O)c2ccc(F)cc2)CC1)c1ccc(F)cc1 (stereo not given) |  | 109 |  | 114 |  | 94.4 |  | 125 |  | 116 |  | 154 |  | 113 |  | 123 |  | 113 |  | 120
N#CC(C#N)=C/C=C(\Sc1ccc(F)cc1Cl)c1ccc(Cl)cc1 | 0.35 | 1.73 | 2.18 | 6.16 | 8.97 | 24 | 0.904 | 3.42 | 0.605 | 2.61 | 0.432 | > 100 | 0.391 | 3.59 | 2.22 | 12.5 | 0.406 | 1.72 | 0.52 | 49.2
CC(=O)O[C@H]1CC[C@@]2(C)C(=C/C(=N/OCCN3CCCC3)[C@H]3[C@@H]4CC[C@H](OC(C)=O)[C@@]4(C)CC[C@@H]32)C1 | 53 | > 100 | 45.3 | > 100 | 76.7 | > 100 | 29.2 | > 100 | 73.8 | > 100 | 27.3 | > 100 | > 100 | > 100 | 63.3 | > 100 | 18 | 36.1 | 23.3 | 57.7
Cn1cc(C2=C(Nc3ccccc3)C(=O)NC2=O)c2ccccc21 | > 25 | > 25 | > 25 | > 25 | > 25 | > 25 | > 25 | > 25 | > 25 | > 25 | > 25 | > 25 | > 25 | > 25 | > 25 | > 25 | > 25 | > 25 | > 25 | > 25
CN(C)c1ccc(/C=N/S(=O)(=O)c2ccc(-n3c(-c4ccccc4)nc4c(Br)cc(Br)cc4c3=O)cc2)cc1 | 42 | > 90.7 | 28.3 | > 92.8 | 32.5 | > 93.7 | 47.7 | > 100 | > 69.5 | > 100 | 31.3 | > 86.5 | 44.4 | > 91.8 | 34 | > 100 | 47.2 | > 89.7 | 34.4 | 84.2
COc1cc2c(c(OC)c1OC)-c1ccc(N=NC(N)=S)c(=O)cc1[C@@H](NC(C)=O)CC2 | 0.216 | 0.577 | 0.646 | > 100 | 0.477 | 3.15 | 1.8 | > 100 | 2.26 | > 100 | 0.425 | > 100 | 0.311 |  | 3.63 | > 100 |  | > 100 | 0.378 | 
Cc1cc(Cl)ccc1C(=O)c1ccc2ccccc2c1C(=O)O |  | > 100 |  | > 100 |  | > 100 |  |  |  | > 100 |  | > 100 |  | > 100 |  | > 100 |  | > 100 |  | > 100
Cc1[nH]c2cc(F)ccc2c1-c1nc2c3cccnc3c3ncccc3c2[nH]1 | 0.342 | 1.48 |  |  | 0.263 | 1.06 | 0.27 | 1.27 | 0.573 | 2.65 | 0.324 | 4.77 | 0.287 | 1.29 | 0.381 | 2.35 | 0.202 | 0.769 | 0.205 | 0.564
CCCCNc1ccc(Nc2ccccc2)cc1 | 3.29 | 24.3 | 8.2 | > 100 | 11.4 | > 100 | 14.4 | 71.4 | 29 | > 100 | 2.45 | 12 | 11.8 | 57.3 | 4.38 | 52.9 | 3.8 | 28.8 | 2.05 | 5.35
CC1(C)Cc2c(Br)c(Br)c(Br)c(OCC(O)CN3CCN(c4ccccn4)CC3)c2O1 (stereo not given) | 14.3 | 33.6 | 14.1 | 28.1 | 14.8 | 29.5 | 13.2 | 27.7 | 16.2 | 31.3 | 4.1 | 20.3 | 13.6 | 29.2 |  |  | 17 | 36.9 | 2.8 | 11.1
COc1cnc2c(c1)C(=O)c1c-2n(CCCN2CCC(O)CC2)c(=O)c2cc(Cl)ccc12 | 12.9 | 25.7 | 0.191 | 13.7 | 0.704 | 21.8 | 0.0942 | 17.1 | 1.63 | 3.43 | 1.43 | 6.34 | 0.433 | 1.64 | 0.48 | 2.34 | 14.1 | 27.9 | 0.929 | 4.32
CC1OC(CC(=O)O)CC2=C1C(=O)c1c(O)cccc1C2=O (stereo not given) |  | 0.283 |  | 0.268 |  | 2.36 |  | 2.94 |  | 2.86 |  | 0.36 |  | 2.43 |  | 7.96 |  | 0.495 |  | 0.0582
COc1cc2oc3c(c(=O)c2c(O)c1/C=C/C(C)C)C(C=C(C)C)Oc1cc(O)ccc1-3 (stereo not given) |  | 30.8 |  | 32.3 |  | 40.3 |  |  |  | 31.1 |  | 24.2 |  | 31.8 |  | 28.8 |  | 38.9 |  | 56.1
Cc1cccc2c3c(sc12)C(c1ccc(F)cc1)C(C#N)=C(N)O3 (stereo not given) | 0.0222 | 0.0514 | 0.0433 | 11.7 | 0.0192 | 0.318 | 0.127 | 12.9 | 0.325 | 12.8 | 0.0357 | > 100 | 0.0473 | 0.679 | 0.135 | 14.1 | 0.08 | 19 | 0.0389 | 0.731
CC1=Nc2c([nH]c(=S)[nH]c2=O)NC(c2c(Cl)cccc2Cl)C1 (stereo not given) |  | 2.88 |  | 4.45 |  | 6.68 |  | 13.6 |  | 11.9 |  | 2.21 |  | 4.2 |  | 15 |  | 12.9 |  | 2.54
COc1cc(Cl)cc(-c2nn(-c3cccc(NC(=O)Nc4ccc(Cl)c(Cl)c4)c3)cc2-c2ccncc2)c1 | 2.08 | 6 | 2.4 | 16.3 | 2.52 | 90.9 | 3.38 | 35.1 | 4.36 | > 100 | 1.96 | > 100 | 2.6 | 13.2 | 1.48 | 15.3 | 2.06 | 7.85 | 2.19 | 5.68
COCCOCCOCc1n(Cc2ccc3ccccc3n2)c2ccccc2[n+]1Cc1ccc2ccccc2n1 | 0.387 | 10.8 | 0.424 | 10.2 | 2.48 | 7.74 | 2.44 | 14.3 | 2.5 | 18 | 0.421 | 13.2 | 0.852 | 13.6 | 3.21 | 69.5 | 0.658 | 8.67 | 0.26 | 1.31
COC(=O)C(C(=O)OC)C(Br)C(Br)C(Br)c1ccccc1 (stereo not given) | 5.66 | 20.7 | 9.46 | 21.5 | 15.5 | 33.1 | 16.9 | 36 | 19.9 | 37.5 |  |  | 18.2 | 33.7 | 16.8 | 32.6 | 2.34 | 4.92 | 2.59 | 6.47
O=C1N(Cc2ccccc2Cl)c2ccccc2C12NN=C(c1cccc(Cl)c1)S2 (stereo not given) | 1.75 | 3.28 | 1.76 | 3.52 | 1.54 | 2.95 | 1.55 | 2.89 | 1.88 | 3.76 | 2.21 | 5.39 |  |  | 1.86 | 3.41 | 1.54 | 3.24 | 2.49 | 6.32
CC1SC2(CCCCC2)N(NC(=O)c2[nH]c3ccc(Br)cc3c2-c2ccccc2)C1=O (stereo not given) | 30.1 | > 100 | 9.66 | > 100 | > 100 | > 100 | 37 | > 100 | 58.7 | > 100 | 6.78 | > 100 | > 100 | > 100 | 15.7 | > 100 | 17.2 | 59.3 |  | 
